From PubChem BioAssay (NCI)
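Growth conditions: 96-well plates. Treatment: test compound, 48 hours, 5 concentrations. Analysis: linear interpolation between bracketing concentrations; unreached endpoints set to highest concentration. TGI: total growth inhibition.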

Tests used:
Test in all cases: NCI tumour cell line growth inhibition, 48 h
LOX IMVI melanoma = test system: LOX IMVI melanoma
SF-539 CNS = test system: SF-539 CNS
HCC-2998 colon = test system: HCC-2998 colon
NCI-H522 lung = test system: NCI-H522 lung
CCRF-CEM leukemia = test system: CCRF-CEM leukemia
MALME-3M melanoma = test system: MALME-3M melanoma
OVCAR-8 ovarian = test system: OVCAR-8 ovarian
U251 CNS = test system: U251 CNS
RXF 393 renal = test system: RXF 393 renal
MDA-N = test system: MDA-N
TK-10 renal = test system: TK-10 renal
DU-145 prostate = test system: DU-145 prostate
IGROV1 ovarian = test system: IGROV1 ovarian
UO-31 renal = test system: UO-31 renal
NCI-H23 lung = test system: NCI-H23 lung
HCT-116 colon = test system: HCT-116 colon
K-562 leukemia = test system: K-562 leukemia
NCI-H460 lung = test system: NCI-H460 lung
MDA-MB-435 = test system: MDA-MB-435
BT-549 breast = test system: BT-549 breast
SF-295 CNS = test system: SF-295 CNS
SNB-75 CNS = test system: SNB-75 CNS
SF-268 CNS = test system: SF-268 CNS
SK-MEL-5 melanoma = test system: SK-MEL-5 melanoma
ACHN renal = test system: ACHN renal
CAKI-1 renal = test system: CAKI-1 renal
SW-620 colon = test system: SW-620 colon
UACC-257 melanoma = test system: UACC-257 melanoma
OVCAR-4 ovarian = test system: OVCAR-4 ovarian
EKVX NSCLC = test system: EKVX NSCLC
HOP-92 NSCLC = test system: HOP-92 NSCLC
MDA-MB-231 breast = test system: MDA-MB-231 breast
SK-MEL-28 melanoma = test system: SK-MEL-28 melanoma
SNB-19 CNS = test system: SNB-19 CNS
HT29 colon = test system: HT29 colon
786-0 renal = test system: 786-0 renal
RPMI-8226 leukemia = test system: RPMI-8226 leukemia
KM12 colon = test system: KM12 colon
OVCAR-3 ovarian = test system: OVCAR-3 ovarian
COLO 205 colon = test system: COLO 205 colon
HL-60(TB) leukemia = test system: HL-60(TB) leukemia
NCI/ADR-RES ovarian = test system: NCI/ADR-RES ovarian
HS 578T breast = test system: HS 578T breast
PC-3 prostate = test system: PC-3 prostate
A549 NSCLC = test system: A549 NSCLC
OVCAR-5 ovarian = test system: OVCAR-5 ovarian
SN12C renal = test system: SN12C renal
MCF7 breast = test system: MCF7 breast
HOP-62 NSCLC = test system: HOP-62 NSCLC
A498 renal = test system: A498 renal
NCI-H226 lung = test system: NCI-H226 lung
HCT-15 colon = test system: HCT-15 colon
SR leukemia = test system: SR leukemia
MOLT-4 leukemia = test system: MOLT-4 leukemia
M14 melanoma = test system: M14 melanoma
UACC-62 melanoma = test system: UACC-62 melanoma
SK-MEL-2 melanoma = test system: SK-MEL-2 melanoma
T-47D breast = test system: T-47D breast

Measured: TGI

O=[N+]([O-])c1ccc2c(c1)Sc1ccccc1N2
81.9 µM: SNB-75 CNS
not listed: M14 melanoma | UACC-62 melanoma | SK-MEL-2 melanoma | T-47D breast
> 100 µM: all other assays above

CC(C)OC(=O)C1=C2c3ncccc3C(=O)N2[C@@H](Cl)[C@H](Cl)[C@H]1Cl
93.8 µM: SR leukemia
85.9 µM: SN12C renal
not listed: CCRF-CEM leukemia | SNB-75 CNS | T-47D breast
> 100 µM: all other assays above

CC(C)(C)OC(=O)NCCc1ccc(N)cc1
not listed: SF-539 CNS | RXF 393 renal | NCI-H23 lung | BT-549 breast | SNB-75 CNS | CAKI-1 renal | HOP-92 NSCLC | 786-0 renal | KM12 colon | HS 578T breast | OVCAR-5 ovarian | SN12C renal | A498 renal | NCI-H226 lung | SK-MEL-2 melanoma
> 100 µM: all other assays above
